Source: US11207286B2, “Self-emulsifying composition of w3 fatty acid” (MOCHIDA PHARMACEUTICAL CO., LTD., priority 2009, dated 2021)

Key:
[1] = Pharmacokinetics in beagle; type: in vivo; settings: male beagles fasted at least 18 hours, oral, 600 mg in terms of EPA-E, plasma EPA, corrected for pre-administration concentration
Experimental: The compositions of the Examples 6, 7, 9, 10, 13, and Comparative Example 2 were orally administered to 3 to 8 male beagles (34 to 45 months old having a body weight of 11 to 17 kg, Kitayama Labes Co., Ltd.) under fasting, and time course blood EPA concentration was evaluated. The test animals were fasted at least for 18 hours before the test, and each animal was administered with the composition at an amount of 600 mg in terms of the EPA-E. The blood was collected before the administration and at 1, 1.5, 2, 2.5, 3, 4, 6, 8, and 24 hours after the administration, and after separating and treating the plasma, plasma EPA concentration was measured by LC/MS/MS. The EPA-E stock solution filled in a capsule was also administered to the control group animals. […] In calculating each parameter, the value was corrected by subtracting the blood EPA concentration before the administration from the blood concentration after the administration.

[2] = on rare occasion; cited from earlier work
[3] = Pharmacokinetics in cynomolgus monkey; type: in vivo; settings: cynomolgus monkeys fasted at least 12 hours, oral, 4.5 mg/kg in terms of EPA-E, plasma EPA
Experimental: The compositions of the Example 6 was orally administered to 6 cynomolgus monkies (2 to 5 years having a body weight of 2.70 to 4.65 kg, Hamri Co., Ltd.) under fasting, and time course blood EPA concentration was evaluated. The test animals were fasted at least for 12 hours before the test, and each animal was administered with the self-emulsifying composition at an amount of 4.5 mg/kg in terms of the EPA-E. The EPA-E stock solution filled in a capsule was also administered to the control group animals. The blood was collected before the administration and at 1, 2, 4, 6, 8, 10, 12, 24, 48, and 72 hours after the administration, and after separating and treating the plasma, plasma EPA was measured by LC/MS/MS. […] In calculating each parameter, the value was corrected by subtracting the blood EPA concentration before the administration from the blood concentration after the administration.

[4] = test system: Fasted Glucose Tolerance Model Rat; assay: Effectiveness in fasted glucose tolerance model rat; type: in vivo, Sprague Dawley rats; settings: rats fasted at least 24 hours, oral capsule 100 mg/kg in terms of EPA-E, glucose 2 g/kg 30 minutes later
Experimental: Male Sprague Dawley rats (10 week old, Charles River Laboratories Japan, Inc.) are divided into 4 groups each comprising 10 animals with even body weight and serum TG value. Control group is administered with olive oil, EPA-E group is administered with EPA-E stock solution, Example group is administered with the self-emulsifying composition of Example 6, and comparative group is administered with the composition of Comparative Example 2 by filling in the gelatin capsule and perorally administering the capsule to the animals, respectively. The test animals are fasted at least 24 hours before the administration, and each animal is administered with the composition at an amount of 100 mg/kg in terms of the olive oil or the EPA-E. 30 minutes after the administration, glucose solution in physiological saline is orally administered at 2 g/kg. Blood is periodically collected from tail vein, and plasma TG concentration and free fatty acid concentration are measured by using a commercially available assay kit. Change from the value before the glucose loading is calculated for each parameter.

AUC0-2 ([1]; 0 to 2 hours): 14.4 µg·h/mL
AUC0-24 ([1]; 0 to 24 hours): 188.0 µg·h/mL
Cmax [1]: 16600 ng/mL
AUC0-12 ([3]; 0 to 12 hours, corrected): 46.5 µg·h/mL
AUC0-72 ([3]; 0 to 72 hours, corrected): 284.5 µg·h/mL
Cmax ([3]; corrected for pre-administration concentration): 7400 ng/mL
Structure (SMILES): CC/C=C\C/C=C\C/C=C\C/C=C\C/C=C\CCCC(=O)OCC [EPA-E stock solution, Ethyl eicosapentaenoate ester]
side effect: nausea [2]: 0.23%
side effect: stomach discomfort [2]: 0.23%
side effect: vomiturition [2]: 0.21%
increase in plasma TG concentration after the glucose loading [4]: not observed
